Source: patent US4806537A (City of Hope, priority 1988, dated 1989)
Read-outs that look alike come from different tables or passages of the source.

Experiments:
K^+ transport = assay: K^+ transport: ^86 Rb uptake by P3 membrane fractions of whole mouse brain; assay type: biochemical, Swiss mice; details: for IC50: ^86 Rb uptake, P3 fraction, 0° C., pH 7, 5 seconds; for K^+ transport inhibition activity relative to amodiaquin (in words): fraction of amodiaquin's activity; for K^+ Transport Relative Potency: relative to amodiaquin = 1; for Concentration inhibiting K^+ transport (selection criterion met): submillimolar concentrations
Procedure: To obtain the data set forth in Table I, K^+ -transport was measured using P3 membrane fractions prepared from whole brains of Swiss mice. […] The resulting supernatant was centrifuged at 17,000 g for 15 minutes, and the supernatant from the latter was centrifuged at 70,000 g for 1 hour to pellet the P3 fraction. The P3 pellet was washed by resuspension in 50 mM Tris-citrate (pH 7.3). After 10 minutes on ice, the suspension was centrifuged at 70,000 g for 10 minutes. This washing procedure was repeated twice using distilled water for the resuspension. […] The suspension (2-3 mg protein/ml) was stabilized on ice for 1 hour prior to use. Uptake of ^86 Rb (radioactive) was used to assess the K^+ -transport of the P3 articles. Many published experiments have shown the ^86 Rb, with a half-life 36 times longer than ^42 K, is a suitable tracer for K. Rb permeates neuronal K channels as well as does K itself.
After filtration of the samples, the filters were washed rapidly three times with 10^-3 M triethanolamine containing 0.1M RbCl (non-radioactive) and counted in ACS liquid scintillation cocktail (Amersham). In calculating the results, the uptake found in the presence of 0.1M non-radioactive RbCl was subtracted from that found in the presence of various concentrations of the test substances in the presence of 10^-6 M ^86 RbCl alone. […] Between 0.2 and 0.5 mg/ml usually were employed. The results were normalized by calculating them as percentages of the uptake observed with 10^-6 M ^86 RbCl alone.

Acetylcholinesterase = biological target: T1, Acetylcholinesterase (Electrophorus electricus, UniProt O42275); assay: Acetylcholinesterase activity, acetylthiocholine substrate, colorimetric (Ellman); assay type: biochemical, electric eel; details: for Cholinesterase inhibitory potency relative to amodiaquin (in words): fraction of amodiaquin's inhibitory potency; for Acetylcholinesterase Activity Rank Order: rank among the five substances; for Acetylcholinesterase Activity Relative Potency: relative to amodiaquin = 1
T1 construct: The enzyme employed was prepared from the electric organ of the electric eel; from tissue; host or cells: electric organ of the electric eel
Procedure: Cholinesterase activity reported in Table I was measured by a standard procedure. The enzyme employed was prepared from the electric organ of the electric eel. It is known to have the same properties as the enzyme of mammalian nervous tissue. Acetylthiocholine was used as substrate.
Inhibitory potency of substances was determined by measuring enzyme activity in the absence and presence of varying concentrations of the test substances.

patients with AD = details: cited from earlier work
[1] = in vivo; cited from earlier work
mice = details: cited from earlier work
cholinesterase = details: cited from earlier work

T1 sequence (O42275 24-633): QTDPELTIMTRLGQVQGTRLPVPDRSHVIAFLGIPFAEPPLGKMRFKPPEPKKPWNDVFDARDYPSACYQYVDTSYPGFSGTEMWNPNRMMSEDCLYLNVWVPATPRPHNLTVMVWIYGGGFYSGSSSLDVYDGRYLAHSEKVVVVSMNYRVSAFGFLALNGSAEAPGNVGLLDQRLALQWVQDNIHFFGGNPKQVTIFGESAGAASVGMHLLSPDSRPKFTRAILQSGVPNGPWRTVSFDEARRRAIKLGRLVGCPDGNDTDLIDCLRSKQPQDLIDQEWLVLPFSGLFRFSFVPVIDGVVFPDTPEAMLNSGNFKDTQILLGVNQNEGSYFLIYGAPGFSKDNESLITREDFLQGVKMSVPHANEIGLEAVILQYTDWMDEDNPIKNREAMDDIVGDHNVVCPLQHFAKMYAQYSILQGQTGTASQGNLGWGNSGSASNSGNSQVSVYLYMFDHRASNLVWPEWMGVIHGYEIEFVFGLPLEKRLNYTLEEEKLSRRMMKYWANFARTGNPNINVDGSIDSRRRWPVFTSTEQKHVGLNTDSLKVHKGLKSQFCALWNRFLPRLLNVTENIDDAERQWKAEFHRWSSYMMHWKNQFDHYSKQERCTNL

Compound | IC50 (K^+ transport) | K^+ transport inhibition activity relative to amodiaquin (in words) (K^+ transport) | K^+ Transport Relative Potency (K^+ transport) | Concentration inhibiting K^+ transport (selection criterion met) (K^+ transport) | IC50 (Acetylcholinesterase) | Cholinesterase inhibitory potency relative to amodiaquin (in words) (Acetylcholinesterase) | Acetylcholinesterase Activity Rank Order (Acetylcholinesterase) | Acetylcholinesterase Activity Relative Potency (Acetylcholinesterase) | Effect on symptoms of AD (patients with AD) | Effect on general anesthesia [1] | Effect on behavioral deficit produced by anoxia (mice) | Cholinesterase inhibition (cholinesterase) | IC50 (Acetylcholinesterase; electric eel enzyme, acetylthiocholine substrate, read-out: Acetylcholinesterase Activity IC50)
CCN(CC)CCCC(C)Nc1c2ccc(Cl)cc2nc2ccc(OC)cc12 (centres unmarked) [Quinacrine, quinacrine] | 90 µM | approximately one-half | 0.44 | ≤ 10^-3 M | 4 µM | less than one-thousandth | 4(5) | 0.001 | – | – | – | – | –
Nc1c2ccccc2nc2ccccc12 [9-aminoacridine] | 70 µM | – | – | – | – | – | – | – | – | – | – | – | –
Nc1ccncc1 [4AP, 4-aminopyridine] | – | – | – | – | – | – | – | – | may improve symptoms in some patients with AD | rapidly overcomes the effects of general anesthesia | partially reversed the behavioral deficit | – | –
CCN(CC)Cc1cc(Nc2ccnc3cc(Cl)ccc23)ccc1O [Amodiaquin, amodiaquin] | 40 µM | – | – | – | 0.004 µM | – | – | – | – | – | – | effective cholinesterase inhibitor | –
CCN(CC)CCCC(C)Nc1ccnc2cc(Cl)ccc12 (centres unmarked) [Chloroquine, chloroquine] | 600 µM | approximately one-twentieth | 0.067 | ≤ 10^-3 M | – | less than one-thousandth | 5(4) | 0.001 | – | – | – | – | 4 µM
